{"source": "PubChem BioAssay (NCI)", "note": "Several values for one entry are separate records, joined by “and”; a condition that tells them apart may be missing. Equal values may be shown once.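 In this assay, cells in 96-well plates receive the compound at five concentrations for 48 hours. Endpoints are linearly interpolated between the surrounding concentrations. GI50 marks 50% less growth. TGI denotes the concentration required for complete inhibition of growth.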"}
{"test_system": "MDA-MB-468 breast", "experiment": "NCI-60 cell line screen, 48 h"}
{"smiles": "OCc1ccc(N2CCCC2)cc1Cl", "GI50": "75.7 nM", "TGI": "324 nM"}
{"smiles": "O=C1CCC(N2C(=O)c3cccc(NCCCC4CCN(CCNC(=O)c5cc6c(o5)C(=O)c5ccccc5C6=O)CC4)c3C2=O)C(=O)N1", "note": "(stereo unspecified)", "GI50": "265 nM", "TGI": "1940 nM"}
{"smiles": "C[C@@H]1COCCN1c1cc(-c2ccnn2C)c2ccnc(-c3ccn[nH]3)c2n1", "GI50": "164 nM and 324 nM", "TGI": "854 nM and 3080 nM"}
{"smiles": "NNc1c2ccccc2nc2ccccc12", "GI50": "470 nM", "TGI": "13000 nM"}
{"smiles": "Nc1n[nH]c2ccc([C@@H]3Nc4cc5[nH]ncc5cc4[C@H]4C5CCC(C5)[C@@H]34)cc12", "note": "(stereo partly specified)", "GI50": "211 nM", "TGI": "873 nM"}
{"smiles": "Cn1nnc2c(C(N)=O)ncn2c1=O", "GI50": "> 100000 nM", "TGI": "> 100000 nM"}
{"smiles": "COC1=CC(=O)c2c(O)c3c(c(O)c2C1=O)C[C@](C)(O)C[C@@H]3O", "GI50": "2160 nM", "TGI": "7130 nM"}
{"smiles": "COc1cc(/C=C/[N+](=O)[O-])cc(OC)c1OC", "GI50": "1320 nM", "TGI": "2870 nM"}
{"smiles": "CC/C=C\\C/C=C/C=C1/C(=O)C=C[C@@H]1C/C=C\\CCCC(=O)OC", "GI50": "1790 nM", "TGI": "3830 nM"}
{"smiles": "O=[N+]([O-])c1ccc2c(Nc3ccccc3-c3ccccc3Nc3c4ccccc4nc4cc([N+](=O)[O-])ccc34)c3ccccc3nc2c1", "GI50": "2250 nM", "TGI": "8600 nM"}
{"smiles": "N/C(=N\\c1nc2ccccc2s1)NC(=NC1CCCCC1)NC1CCCCC1", "GI50": "1700 nM", "TGI": "3410 nM"}
{"smiles": "COc1cccc(C2C(C#N)=C(N)Oc3c2ccc2ccccc32)c1", "note": "(stereo unspecified)", "GI50": "19.4 nM", "TGI": "7040 nM"}
{"smiles": "Cc1cccc2c(Nc3ccc(NS(C)(=O)=O)cc3)c3ccc([N+](=O)[O-])cc3nc12", "GI50": "202 nM", "TGI": "882 nM"}
{"smiles": "CCN(C(=O)CN1CCN(c2cc3c(cc2F)c(=O)c(C(=O)O)cn3CC)CC1)c1nc(-c2ccccc2)cs1", "GI50": "307 nM", "TGI": "896 nM"}
{"smiles": "Cc1oc2c(c1C(=O)N1CC[C@@H](N)C1)C(=O)c1c(c(O)c3ccccc3c1O)C2=O", "GI50": "2520 nM", "TGI": "11900 nM"}
{"smiles": "COc1ccc2c(c1)/C(=C\\c1c[nH]c3ccc(OC)cc13)C(=O)N2", "GI50": "1780 nM", "TGI": "5660 nM"}
{"smiles": "O=C1CSC(c2ccccc2O)N1c1nnc(Cn2ccnc2)o1", "note": "(stereo unspecified)", "GI50": "3110 nM", "TGI": "13200 nM"}
{"smiles": "Brc1cccc(-c2cc(-c3ccc4nccnc4c3)[nH]n2)c1", "GI50": "900 nM"}
{"smiles": "COc1cccc(CC(C)=C(c2ccc(OCCCN(C)C)cc2)c2ccc(OCCCN(C)C)cc2)c1", "GI50": "518 nM", "TGI": "1180 nM"}
{"smiles": "NC(=O)c1cccc(-c2cc(C(N)=O)ccc2Cl)c1", "GI50": "4610 nM", "TGI": "> 100000 nM"}
{"smiles": "CC(=O)O.CC(=O)O.CC(=O)O.CC(=O)O.[Rh].[Rh]", "GI50": "15000 nM", "TGI": "58100 nM"}
{"smiles": "CCN1C(=O)N(CC)C2C1NN=c1s/c(=C\\c3ccc[nH]3)c(=O)n12", "note": "(stereo unspecified)", "GI50": "265 nM", "TGI": "> 100000 nM"}
{"smiles": "COc1ccc(Oc2ccccc2NC(=O)CNC(=O)c2cccc3ccccc23)cc1", "GI50": "454 nM", "TGI": "> 25000 nM"}
{"smiles": "COc1cc(C2CC(=O)Nc3c2cc(Br)c2ccccc32)cc(Br)c1OC", "note": "(stereo unspecified)", "GI50": "529 nM", "TGI": "2540 nM"}
{"smiles": "CCN(CC)CCC(CNc1c(C)cnc2cc(Cl)ccc12)c1ccc(Cl)cc1", "note": "(stereo unspecified)", "GI50": "2050 nM", "TGI": "5450 nM"}
{"smiles": "C=C1CC[C@@H]2[C@](C)(COC(C)=O)[C@H](OC(C)=O)CC[C@@]2(C)[C@@H]1CC(Nc1ccc(S(=O)(=O)Nc2nccs2)cc1)C1=CCOC1=O", "note": "(stereo partly specified)", "GI50": "1830 nM", "TGI": "4430 nM"}
{"smiles": "CCN(CC)CCCC(C)Nc1c(-c2ccccc2)cnc2cc(Cl)ccc12", "note": "(stereo unspecified)", "GI50": "2630 nM", "TGI": "7950 nM"}
{"smiles": "C=CCn1c(=O)c2cnc(Nc3ccc(N4CCN(C)CC4)cc3)nc2n1-c1cccc(C(C)(C)O)n1", "GI50": "144 nM and 317 nM", "TGI": "801 nM and 2080 nM"}
{"smiles": "O=c1c(O)cccn1CCCN(CCCn1cccc(O)c1=O)CCn1cccc(O)c1=O", "GI50": "8330 nM", "TGI": "45600 nM"}
{"smiles": "NS(=O)(=O)c1cccc(-c2ccc3c(NC(=O)C4CC4)n[nH]c3c2)c1", "GI50": "5250 nM", "TGI": "> 25000 nM"}
{"smiles": "Cc1ccc(Sc2oc(-c3ccc(C)cc3)nc2[P+](c2ccccc2)(c2ccccc2)c2ccccc2)cc1", "GI50": "227 nM", "TGI": "705 nM"}
{"smiles": "O=C1/C(=C/c2cccc(Br)c2)COc2ccc(O)c(O)c21", "GI50": "1600 nM", "TGI": "3800 nM"}
{"smiles": "O=C(Nc1cnc(C(F)(F)F)cn1)c1cc(Cl)ccc1O", "GI50": "282 nM", "TGI": "819 nM"}
{"smiles": "CCN(CC)C(=S)SSC(=S)N(CC)CC", "GI50": "15800 nM and 16800 nM", "TGI": "43700 nM and 44800 nM"}
{"smiles": "CN(c1ccc(C#N)c(Cl)c1)C1CCC(NC(=O)c2ccc(N3CCN(C4CN(c5ccc6c(c5)C(=O)N(C5CCC(=O)NC5=O)C6=O)C4)CC3)cc2)CC1", "note": "(stereo unspecified)", "GI50": "13700 nM", "TGI": "60000 nM"}
{"smiles": "Cc1c2ccncc2c(C)c2c1c1cc(CO)ccc1n2C", "GI50": "105 nM", "TGI": "327 nM"}
{"smiles": "C=C1C(=O)O[C@H]2[C@H]1CC/C(CNC(=O)/C=C/c1ccccc1)=C\\CC[C@@]1(C)O[C@@H]21", "GI50": "480 nM", "TGI": "1690 nM"}
{"smiles": "COc1cc(OC)cc(-c2n/c(=C\\c3c(O)[nH]c4ccc(Cl)cc34)cc3c2=Nc2ccccc2-3)c1", "GI50": "17900 nM", "TGI": "45600 nM"}
{"smiles": "CCOC(=O)C1=C(C)N2C(=NC3=C(CCC/C3=C\\c3ccc(Cl)cc3)C2c2ccc(Cl)cc2)S1", "note": "(stereo unspecified)", "GI50": "2360 nM", "TGI": "6190 nM"}
{"smiles": "COc1ccc(C2C(C#N)=C(/N=C/c3ccc(Cl)cc3)Oc3c2sc2c(C)cccc32)cc1", "note": "(stereo unspecified)", "GI50": "1090 nM", "TGI": "9340 nM"}
{"smiles": "Cn1c2c(c3ccccc31)CCN1C(=O)C3SC21C1C(=O)N(c2ccccc2)C(=O)C31", "note": "(stereo unspecified)", "GI50": "51600 nM", "TGI": "> 100000 nM"}
{"smiles": "Oc1c(Cl)cc(Cl)c2cccnc12", "GI50": "2100 nM", "TGI": "5530 nM"}
{"smiles": "Cc1cc(NC(=O)c2cnc(N3CCN(CCOCCOCCOCCOCCC(=O)N[C@H](C(=O)N4C[C@H](O)C[C@H]4C(=O)N[C@@H](C)c4ccc(-c5scnc5C)cc4)C(C)(C)C)CC3)cn2)c2ncccc2c1", "GI50": "1670 nM", "TGI": "3390 nM"}
{"smiles": "C[C@H]1c2ccccc2CN1CCCOc1cc2c(cc1OCC1CC1)C1(CCCC1)C(N)=N2", "GI50": "813 nM", "TGI": "1830 nM"}
{"smiles": "Nc1ncccc1-c1nc2ccc(-c3ccccc3)nc2n1-c1ccc(C2(N)CCC2)cc1", "GI50": "117 nM", "TGI": "1990 nM"}
{"smiles": "Cc1ccc(NC(=O)Nc2nc3ccc([N+](=O)[O-])cc3s2)cc1", "GI50": "1710 nM", "TGI": "5800 nM"}
